Source: PMC7232165 (Viruses, 2020)
Like-named read-outs stand apart in the source and are kept apart here.

Assays:
[1] = in vitro; format: cell-based; conditions: human, TZM-GFP cells, 72 h, XTT; mean ± standard deviation; read-out: CC50 (concentration of compound causing 50% cell death)
[2] = system: HIV-1NL4-3; test: Anti-HIV-1 assay in TZM-GFP cells (LTR-activated GFP expression); conditions: for EC50: read-out: EC50 (concentration of compound inhibiting HIV-1 replication by 50%); for antiviral activity against HIV-1 (in words): screened at 20 μM
[3] = biological target: covalently-crosslinked hexameric CA A14C/E45C/W184A/M185A (CA121) (Human immunodeficiency virus type 1 group M subtype B, UniProt P12493, A146C/E177C/M317A/W316A); test: Thermal shift assay (TSA) for effect on HIV-1 CA hexamer stability; format: binding; conditions: compound 20 µM
[4] = system: TZM-GFP cells; test: in vitro; format: cell-based; conditions: for CC50: TZM-GFP cells, 72 h, XTT, mean ± standard deviation, read-out: CC50 (concentration of compound causing 50% cell death)
[5] = Microsomal stability assay, mouse liver microsomes; format: in vitro ADME
[6] = Microsomal stability assay, human liver microsomes; format: in vitro ADME; conditions: for half-life at 1 µM: human liver microsomes
[7] = HLMs; cited from earlier work
[8] = Human immunodeficiency virus 1, 48 h

Row | SMILES | CC50 at 72 h [1] | EC50 [2, 8] | further results
1 | COC(=O)[C@@H]1CCCN1C(=O)[C@H](Cc1cccc2cc[nH]c12)NC(=O)Cn1c(=O)[nH]c2ccccc2c1=O [Compound 4] | < 100 µM | > 20 µM | 
2 | COC(=O)[C@@H]1CCCN1C(=O)CNC(=O)Cn1c(=O)[nH]c2ccccc2c1=O [Compound 3] | > 100 µM | > 20 µM | effect on CA hexamer stability (in words) [3]: complete loss of the CA hexamer stabilizing effect
3 | O=C(Cn1c(S)nnc1-c1ccccc1)NNc1ccccn1 [Compound 22] | > 100 µM | > 20 µM | 
4 | O=C(Cn1c(=O)[nH]c2ccccc2c1=O)N[C@@H](Cc1ccccc1)C(=O)Nc1ccccc1 [Compound 12] |  |  | CC50 [4]: < 100 µM; effect on CA hexamer stability (in words) [3]: did not show activity in either assay; EC50 [2]: > 20 µM; antiviral activity against HIV-1 (in words) [2]: did not show activity in either assay
5 | CCC(C)[C@H](NC(=O)Cn1c(=O)[nH]c2ccccc2c1=O)C(=O)Nc1ccc(-c2nnn[nH]2)cc1 (stereo partly shown) [Compound 21] |  |  | CC50 [4]: > 100 µM; EC50 [2]: > 20 µM
6 | O=C(Cn1c(=O)[nH]c2ccccc2c1=O)N[C@@H](Cc1ccccc1)C(=O)N1CCC[C@H]1C(=O)Nc1ccccc1 [Compound 10] | > 100 µM | 1.6 ± 0.1 µM | effect on CA hexamer stability (in words) [3]: moderate CA hexamer stabilizing effects; half-life at 1 µM ([5]; pH 7.4, mouse liver microsomes, 1 µM compound, NADPH, read-out: Phase I metabolic stability t1/2, MLM): 2.9 min; half-life at 1 µM ([5]; pH 7.4, with Cobicistat 0.5 µM (CYP3A inhibitor), mouse liver microsomes, in the presence of CYP3A inhibitor Cobicistat 0.5 µM, read-out: Phase I metabolic stability t1/2, MLM (+Cobi)): 85 min; antiviral potency (EC50), fold less than PF74 ([2]; relative to PF74 EC50 = 0.61 μM): 2.5 fold; antiviral activity against HIV-1 (in words) [2]: significant anti-HIV-1 activities; half-life (t1/2) in HLMs, fold longer than PF74 ([6]; HLMs, relative to PF74): 44 fold; half-life at 1 µM ([6]; pH 7.4, with Cobicistat 0.5 µM (CYP3A inhibitor), in the presence of CYP3A inhibitor Cobicistat 0.5 µM, read-out: Phase I metabolic stability t1/2, HLM (+Cobi)): > 120 min; half-life at 1 µM ([6]; pH 7.4, 1 µM compound, NADPH, read-out: Phase I metabolic stability t1/2, HLM): 31 min
7 | N#Cc1ccc(NNC(=O)Cn2c(S)nnc2-c2cccc3ccccc23)cc1 [Compound 38] | > 100 µM | > 20 µM | 
8 | CN(NC(=O)Cn1c(S)nnc1-c1ccccc1)c1ccccc1 [Compound 39] | > 50 µM | > 20 µM | 
9 | Cc1ccc(-c2nnc(S)n2CC(=O)NNc2ccccc2)cc1 [Compound 27] | ~100 µM | > 20 µM | 
10 | COC(=O)C1CCCN1C(=O)C(NC(=O)Cn1c(=O)[nH]c2ccccc2c1=O)C(C)C (stereo not shown) [Compound 2] | > 100 µM | > 20 µM | cytotoxicity (in words) ([4]; screened at 100 μM): no cytotoxicity; antiviral activity against HIV-1 (in words) [2]: no significant antiviral activity
11 | Cc1ccc(-c2nnc(S)n2CC(=O)NNc2ccccn2)cc1 [Compound 31] | > 100 µM | > 20 µM | 
12 | CCC(C)[C@H](NC(=O)Cn1c(=O)[nH]c2ccccc2c1=O)C(=O)Nc1ccccc1 (stereo partly shown) [Compound 19] |  |  | CC50 [4]: > 100 µM; EC50 [2]: > 20 µM
13 | Cc1ccc(-c2nnc(S)n2CC(=O)NNc2ccc(-c3ccccc3)cc2)cc1 [Compound 30] | > 100 µM | > 20 µM | 
14 | Cc1ccc(-c2nnc(S)n2CC(=O)NNc2ccc(F)cc2)cc1 [Compound 28] | > 100 µM | > 20 µM | 
15 | Cc1ccc(NNC(=O)Cn2c(S)nnc2-c2cccc3ccccc23)cc1 [Compound 37] | > 100 µM | > 20 µM | 
16 | Cc1ccc(NNC(=O)Cn2c(S)nnc2-c2ccccc2C)cc1 [Compound 33] | > 100 µM | > 20 µM | 
17 | CC(C)C[C@H](NC(=O)Cn1c(=O)[nH]c2ccccc2c1=O)C(=O)N(C)c1ccccc1 [Compound 14] |  |  | CC50 [4]: > 100 µM; EC50 [2]: > 20 µM
18 | CN(C(=O)[C@H](Cc1ccccc1)NC(=O)Cn1c(=O)[nH]c2ccccc2c1=O)c1ccc(F)cc1 [Compound 13] |  |  | CC50 [4]: > 100 µM; effect on CA hexamer stability (in words) [3]: moderate CA hexamer stabilizing effects; EC50 [2]: 8 ± 1.3 µM; antiviral activity against HIV-1 (in words) [2]: significant anti-HIV-1 activities
19 | CC(C)(C)[C@H](NC(=O)Cn1c(=O)[nH]c2ccccc2c1=O)C(=O)Nc1ccccc1 [Compound 17] |  |  | CC50 [4]: > 100 µM; EC50 [2]: > 20 µM
20 | N#Cc1cccc(NNC(=O)Cn2c(S)nnc2-c2ccccc2)c1 [Compound 26] | > 100 µM | > 20 µM | 

Row | SMILES | CC50 at 72 h [1] | EC50 [2, 8] | further results
21 | O=C(Cn1c(=O)[nH]c2ccccc2c1=O)N[C@@H](CSCc1ccccc1)C(=O)N1CCC[C@H]1C(=O)Nc1ccccc1 [Compound 8] | 44 ± 5 µM | > 20 µM | 
22 | O=C(Cn1c(S)nnc1-c1cccc2ccccc12)NNc1ccccc1 [Compound 35] | > 100 µM | > 20 µM | 
23 | Cc1ccc(N(C)C(=O)[C@@H](NC(=O)Cn2c(=O)[nH]c3ccccc3c2=O)C(C)(C)C)cc1 [Compound 16] |  |  | CC50 [4]: > 100 µM; EC50 [2]: > 20 µM
24 | CC(C)C[C@H](NC(=O)Cn1c(=O)[nH]c2ccccc2c1=O)C(=O)Nc1ccccc1 [Compound 15] |  |  | CC50 [4]: > 100 µM; EC50 [2]: > 20 µM
25 | Cc1ccccc1-c1nnc(S)n1CC(=O)NNc1ccc(C#N)cc1 [Compound 34] | > 100 µM | > 20 µM | 
26 | Cc1ccccc1-c1nnc(S)n1CC(=O)NNc1ccccc1 [Compound 32] | > 100 µM | > 20 µM | 
27 | Cc1ccc(-c2nnc(S)n2CC(=O)NNc2ccc(C#N)cc2)cc1 [Compound 29] | > 100 µM | > 20 µM | 
28 | N#Cc1ccc(NNC(=O)Cn2c(S)nnc2-c2ccccc2)cc1 [Compound 25] | > 100 µM | > 20 µM | 
29 | CCC(C)[C@H](NC(=O)Cn1c(=O)[nH]c2ccccc2c1=O)C(=O)N(C)c1ccc(Cl)cc1 (stereo partly shown) [Compound 20] |  |  | CC50 [4]: > 100 µM; EC50 [2]: > 20 µM
30 | O=C(Cn1c(S)nnc1-c1ccccc1)NNc1ccc(F)cc1 [Compound 24] | > 100 µM | > 20 µM | 
31 | O=C(Cn1c(S)nnc1-c1ccccc1)NNc1ccccc1 [Compound 23] | > 100 µM | > 20 µM | 
32 | O=C(Cn1c(S)nnc1-c1ccccc1)NNc1ccc(-c2ccccc2)cc1 [Compound 36] | > 100 µM | > 20 µM | 
33 | Cc1[nH]c2ccccc2c1CC(=O)N[C@@H](Cc1ccccc1)C(=O)N(C)c1ccccc1 [Compound 1, PF74, reference compound] |  | 0.61 ± 0.2 µM | half-life (t1/2) in human liver microsomes [7]: less than 1 min
34 | CN(C(=O)[C@H](Cc1ccccc1)NC(=O)Cn1c(=O)[nH]c2ccccc2c1=O)c1ccccc1 [Compound 11] | > 100 µM | 6.9 ± 0.8 µM | effect on CA hexamer stability (in words) [3]: moderate CA hexamer stabilizing effects; antiviral activity against HIV-1 (in words) [2]: significant anti-HIV-1 activities
35 | COC(=O)[C@@H]1CCCN1C(=O)[C@H](CSCc1ccccc1)NC(=O)Cn1c(=O)[nH]c2ccccc2c1=O [Compound 6] | > 100 µM | > 20 µM | effect on CA hexamer stability (in words) [3]: no such effect was observed
36 | CCC(C)[C@H](NC(=O)Cn1c(=O)[nH]c2ccccc2c1=O)C(=O)N1CCC[C@H]1C(=O)OC (stereo partly shown) [Compound 7] | > 100 µM | > 20 µM | effect on CA hexamer stability (in words) [3]: no such effect was observed
37 | COC(=O)[C@@H]1CCCN1C(=O)[C@H](Cc1cccc2cc[nH]c12)NC(=O)Cn1c(=O)[nH]c2ccccc2c1=O [Compound 5] |  |  | CC50 [4]: > 100 µM; EC50 ([2]; TZM-GFP cells, MOI = 1, 48 h, mean ± standard deviation, at least two independent experiments): > 20 µM
38 | O=C(Cn1c(=O)[nH]c2ccccc2c1=O)N[C@@H](Cc1cccc2cc[nH]c12)C(=O)N1CCC[C@H]1C(=O)Nc1ccccc1 [Compound 9] | > 100 µM | > 20 µM | 
39 | CCC(C)[C@H](NC(=O)Cn1c(=O)[nH]c2ccccc2c1=O)C(=O)N(C)c1ccccc1 (stereo partly shown) [Compound 18] |  |  | CC50 [4]: > 100 µM; EC50 [2]: > 20 µM
